One test addresses T1, MAGL (Mus musculus, UniProt O35678).
T1 construct: mouse brain membrane fraction or cell lysates for mouse assays; from tissue
T1 sequence (O35678 1-303): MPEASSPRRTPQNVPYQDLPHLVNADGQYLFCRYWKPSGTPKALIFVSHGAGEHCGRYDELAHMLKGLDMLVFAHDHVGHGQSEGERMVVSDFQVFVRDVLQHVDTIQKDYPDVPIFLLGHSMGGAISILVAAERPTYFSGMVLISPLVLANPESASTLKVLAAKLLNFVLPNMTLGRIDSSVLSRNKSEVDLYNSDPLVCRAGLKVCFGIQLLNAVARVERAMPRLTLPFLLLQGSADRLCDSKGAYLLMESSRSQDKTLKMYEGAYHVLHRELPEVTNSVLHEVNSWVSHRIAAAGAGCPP
Briefly: In vitro competitive activity-based protein profiling, mouse MAGL. In kind it is biochemical. The conditions noted are these: for inhibition at 1 µM: read-out: MAGL % inh. 1 μM (mouse). A digest of the protocol: (§1)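 Mouse brain membranes or cell lysates (mouse) and human prefrontal cortex or cell membrane fractions (human), 1.0 mg/mL protein, preincubated with inhibitor 30 min at 37 °C, then FP-Rh or HT-01 probe 30 min at 37 °C. SDS-PAGE; MAGL and FAAH activity from in-gel fluorescence band intensity.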

A further test addresses T2, FAAH (Mus musculus, UniProt O08914).
T2 construct: mouse brain membrane fraction or cell lysates for mouse assays; from tissue
T2 sequence (O08914 1-579): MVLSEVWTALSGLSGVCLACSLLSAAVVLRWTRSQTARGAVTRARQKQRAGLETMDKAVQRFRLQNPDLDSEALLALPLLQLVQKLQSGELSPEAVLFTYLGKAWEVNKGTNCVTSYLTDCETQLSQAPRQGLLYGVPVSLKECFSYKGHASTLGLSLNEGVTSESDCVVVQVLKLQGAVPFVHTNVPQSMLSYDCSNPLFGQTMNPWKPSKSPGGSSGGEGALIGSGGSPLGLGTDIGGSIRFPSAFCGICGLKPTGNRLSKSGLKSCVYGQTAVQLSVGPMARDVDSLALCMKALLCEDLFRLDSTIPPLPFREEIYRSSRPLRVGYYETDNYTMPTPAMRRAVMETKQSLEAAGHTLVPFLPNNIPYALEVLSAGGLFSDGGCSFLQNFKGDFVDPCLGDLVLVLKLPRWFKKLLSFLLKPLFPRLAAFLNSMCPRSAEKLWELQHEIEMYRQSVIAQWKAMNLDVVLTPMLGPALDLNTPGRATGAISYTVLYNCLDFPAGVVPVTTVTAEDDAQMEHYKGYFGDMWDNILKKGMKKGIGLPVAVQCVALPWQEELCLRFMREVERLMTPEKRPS
Briefly: In vitro competitive activity-based protein profiling, mouse FAAH. Type of test: biochemical. As to conditions: for inhibition at 1 µM: read-out: FAAH % inh. 1 μM (mouse). A digest of the protocol: as §1

With `CC(C)c1ccc(CN2CC3CN(C(=O)n4cc(Cl)cn4)CC3C2)c(N2CCCC2)c1` (stereo not shown) [Example 108, (4-chloro-1H-pyrazol-1-yl)(5-(4-isopropyl-2-(pyrrolidin-1-yl)benzyl)hexahydropyrrolo[3,4-c]pyrrol-2(1H)-yl)methanone], on MAGL, the IC50 – broadly, the midpoint of a concentration-inhibition curve – was in the range of 100 to 1000 nM and the inhibition at 1 µM is at least 75%. Further, at FAAH, the concentration for half-maximal inhibition (IC50) fell in the range of 1000 to 10000 nM and the inhibition at 1 µM fell in the range of 50 to 75%.

Take `CC(=O)N1CCN(c2cc(C(C)C)ccc2CN2CC3CN(C(=O)n4cc(Cl)cn4)CC3C2)CC1` (stereo not shown) [Example 109, 1-(4-(2-((5-(4-chloro-1H-pyrazole-1-carbonyl)hexahydropyrrolo[3,4-c]pyrrol-2(1H)-yl)methyl)-5-isopropylphenyl)piperazin-1-yl)ethan-1-one]: on MAGL, the IC50 was at most 100 nM and the inhibition at 1 µM was at least 75%. On FAAH, the IC50 lay in the range of 1000 to 10000 nM and the inhibition at 1 µM was in the range of 0 to 25%.

In the case of `O=C(N1CC2CN(Cc3ccc(C(F)(F)F)cc3N3CCCC3)CC2C1)n1cc(Cl)cn1` (stereo not shown) [Example 110, (4-chloro-1H-pyrazol-1-yl)(5-(2-(pyrrolidin-1-yl)-4-(trifluoromethyl)benzyl)hexahydropyrrolo[3,4-c]pyrrol-2(1H)-yl)methanone], on MAGL, the IC50 is at most 100 nM and the inhibition at 1 µM was at least 75%. On FAAH, the IC50 fell in the range of 100 to 1000 nM and the inhibition at 1 µM was at least 75%.

Take `O=C(N1CC2CN(Cc3ccc(Cl)cc3N3CCC4(CCOCC4)C3)CC2C1)n1cc(Cl)cn1` (stereo not shown) [Example 111, (4-chloro-1H-pyrazol-1-yl)(5-(4-chloro-2-(8-oxa-2-azaspiro[4.5]decan-2-yl)benzyl)hexahydropyrrolo[3,4-c]pyrrol-2(1H)-yl)methanone]: at MAGL, the concentration for half-maximal inhibition (IC50) was at most 100 nM and the inhibition at 1 µM is at least 75%. On FAAH, the 50% inhibitory concentration (IC50) is 1000 to 10000 nM and the inhibition at 1 µM was at least 75%.

For the molecule `O=C(N1CCC2(CCN(Cc3cccc(Cl)c3)C2)C1)n1cc(Cl)cn1` (stereo not shown) [Example 113, (4-chloro-1H-pyrazol-1-yl)(7-(3-chlorobenzyl)-2,7-diazaspiro[4.4]nonan-2-yl)methanone], on MAGL, the IC50 lay within 100 to 1000 nM and the inhibition at 1 µM was at least 75%. At FAAH, the concentration for half-maximal inhibition (IC50) is at most 100 nM and the inhibition at 1 µM is at least 75%.

Take `O=C(N1CCC2(CCN(Cc3ccccc3)C2)C1)n1cc(Cl)cn1` (stereo not shown) [Example 114, (7-benzyl-2,7-diazaspiro[4.4]nonan-2-yl)(4-chloro-1H-pyrazol-1-yl)methanone]: the inhibition at 1 µM was 50 to 75% at MAGL and at least 75% at FAAH.

For the molecule `O=C(N1CCC2(CCN(Cc3ccc(Cl)cc3)C2)C1)n1cc(Cl)cn1` (stereo not shown) [Example 115, (4-chloro-1H-pyrazol-1-yl)(7-(4-chlorobenzyl)-2,7-daizaspiro[4.4]nonan-2-yl)methanone], on MAGL, the half-maximal inhibitory concentration (IC50) lay within 100 to 1000 nM and the inhibition at 1 µM was at least 75%. For the same molecule, on FAAH, the IC50 was in the range of 100 to 1000 nM and the inhibition at 1 µM was at least 75%.

With `O=C(N1CC2CN(Cc3cccc(Cl)c3)CC2C1)n1cc(Cl)cn1` (stereo not shown) [Example 117, (4-chloro-1H-pyrazol-1-yl)(5-(3-chlorobenzyl)hexahydropyrrolo[3,4-c]pyrrol-2(1H)-yl)methanone], on MAGL, the 50% inhibitory concentration (IC50) was at most 100 nM and the inhibition at 1 µM was at least 75%. Also, on FAAH, the IC50 is at most 100 nM and the inhibition at 1 µM was at least 75%.

Regarding `O=C(N1CC2CN(Cc3ccc(C(F)(F)F)cc3)CC2C1)n1cc(Cl)cn1` (stereo not shown) [Example 120, (4-chloro-1H-pyrazol-1-yl)(5-(4-(trifluoromethyl)benzyl)hexahydropyrrolo[3,4-c]pyrrol-2(1H)-yl)methanone], the IC50 on MAGL and at FAAH was at most 100 nM each time. The inhibition at 1 µM at MAGL and on FAAH was at least 75% throughout.

On to `Cc1cc(-c2ccccc2)ccc1CN1CC2CN(C(=O)n3cc(Cl)cn3)CC2C1` (stereo not shown) [Example 121, (4-chloro-1H-pyrazol-1-yl)(5-((3-methyl-[1,1′-biphenyl]-4-yl)methyl)hexahydropyrrolo[3,4-c]pyrrol-2(1H)-yl)methanone], for which, on MAGL, the IC50 is at most 100 nM and the inhibition at 1 µM is at least 75%. Also, on FAAH, the IC50 was at most 100 nM and the inhibition at 1 µM is at least 75%.

Consider `O=C(N1CC2CN(Cc3ccc(CN4CCOCC4)cc3)CC2C1)n1cc(Cl)cn1` (stereo not shown) [Example 122, (4-chloro-1H-pyrazol-1-yl)(5-(4-(morpholinomethyl)benzyl)hexahydropyrrolo[3,4-c]pyrrol-2(1H)-yl)methanone], for which the half-maximal inhibitory concentration (IC50) on MAGL and at FAAH was 100 to 1000 nM in each case. Moreover, the inhibition at 1 µM on MAGL and on FAAH was at least 75% in each case.

Consider `O=C(N1CC2CN(Cc3ccc(N4CCCC4)cc3)CC2C1)n1cc(Cl)cn1` (stereo not shown) [Example 123, (4-chloro-1H-pyrazol-1-yl)(5-(4-(pyrrolidin-1-yl)benzyl)hexahydropyrrolo[3,4-c]pyrrol-2(1H)-yl)methanone], for which the IC50 on MAGL and on FAAH was 100 to 1000 nM throughout. For the same molecule, the inhibition at 1 µM at MAGL and at FAAH was at least 75% each time.

For `O=C(N1CC2CN(Cc3cccc(Oc4ccccc4)c3)CC2C1)n1cc(Cl)cn1` (stereo not shown) [Example 124, (4-chloro-1H-pyrazol-1-yl)(5-(3-phenoxybenzyl)hexahydropyrrolo[3,4-c]pyrrol-2(1H)-yl)methanone], on MAGL, the IC50 is at most 100 nM and the inhibition at 1 µM is at least 75%. Also, at FAAH, the IC50 was at most 100 nM and the inhibition at 1 µM is at least 75%.

Consider `O=C(N1CC2CN(Cc3ccc(N4CCOCC4)cc3)CC2C1)n1cc(Cl)cn1` (stereo not shown) [Example 125, (4-chloro-1H-pyrazol-1-yl)(5-(4-morpholinobenzyl)hexahydropyrrolo[3,4-c]pyrrol-2(1H)-yl)methanone], for which the half-inhibitory concentration (IC50) at MAGL and at FAAH was 100 to 1000 nM in each case. Besides, the inhibition at 1 µM on MAGL and at FAAH was at least 75% throughout.

Regarding `O=C(N1CC2CN(Cc3ccc(N4CCOCC4)cc3Cl)CC2C1)n1cc(Cl)cn1` (stereo not shown) [Example 126, (4-chloro-1H-pyrazol-1-yl)(5-(2-chloro-4-morpholinobenzyl)hexahydropyrrolo[3,4-c]pyrrol-2(1H)-yl)methanone], the IC50 at MAGL and at FAAH was at most 100 nM each time. Also, the inhibition at 1 µM at MAGL and on FAAH was at least 75% throughout.

Consider `O=C(N1CCC2(CCN(Cc3ccc(Cl)c(Cl)c3)C2)C1)n1cc(Cl)cn1` (stereo not shown) [Example 127, (4-chloro-1H-pyrazol-1-yl)(7-(3,4-dichlorobenzyl)-2,7-diazaspiro[4.4]nonan-2-yl)methanone], for which the results for the IC50 at MAGL and at FAAH were 100 to 1000 nM and at most 100 nM, respectively. Moreover, the inhibition at 1 µM on MAGL and at FAAH was at least 75% each time.

For `O=C(N1CCC2(CCN(Cc3ccc(C(F)(F)F)cc3)C2)C1)n1cc(Cl)cn1` (stereo not shown) [Example 128, (4-chloro-1H-pyrazol-1-yl)(7-(4-(trifluoromethyl)benzyl)-2,7-diazaspiro[4.4]nonan-2-yl)methanone], at MAGL, the 50% inhibitory concentration (IC50) is 100 to 1000 nM and the inhibition at 1 µM is at least 75%. On FAAH, the IC50 lay within 100 to 1000 nM and the inhibition at 1 µM was at least 75%.

With `O=C(N1CCC2(CCN(Cc3ccc(CN4CCOCC4)cc3)C2)C1)n1cc(Cl)cn1` (stereo not shown) [Example 129, (4-chloro-1H-pyrazol-1-yl)(7-(4-(morpholinomethyl)benzyl)-2,7-diazaspiro[4.4]nonan-2-yl)methanone], the figures for the inhibition at 1 µM at MAGL and on FAAH were 25 to 50% and 50 to 75%, respectively.

In the case of `Cc1cc(N2CCOCC2)ccc1CN1CC2CN(C(=O)n3cc(Cl)cn3)CC2C1` (stereo not shown) [Example 131, (4-chloro-1H-pyrazol-1-yl)(5-(2-methyl-4-morpholinobenzyl)hexahydropyrrolo[3,4-c]pyrrol-2(1H)-yl)methanone], on MAGL, the half-inhibitory concentration (IC50) is at most 100 nM and the inhibition at 1 µM is at least 75%. In addition, on FAAH, the concentration for half-maximal inhibition (IC50) was at most 100 nM and the inhibition at 1 µM is at least 75%.

Regarding `O=C(N1CCC2(CCN(Cc3ccc(N4CCCC4)cc3)C2)C1)n1cc(Cl)cn1` (stereo not shown) [Example 134, (4-chloro-1H-pyrazol-1-yl)(7-(4-(pyrrolidin-1-yl)benzyl)-2,7-diazaspiro[4.4]nonan-2-yl)methanone], on MAGL, the half-maximal inhibitory concentration (IC50) lay in the range of 100 to 1000 nM and the inhibition at 1 µM was at least 75%. Also, at FAAH, the concentration for half-maximal inhibition (IC50) is at most 100 nM and the inhibition at 1 µM is at least 75%.

For the origin of these results see patent US10385057B2, “Pyrazole compounds and methods of making and using same” (Lundbeck La Jolla Research Center, Inc., priority 2015, dated 2019).
